# Data: patent US20200061047A1, “NEW USE OF RIFAMYCIN-QUINOLIZIDONE DUAL-ACTION MOLECULE” (TenNor Therapeutics Limited, priority 2017, published 2020)
# Read-outs that look alike come from different tables or passages of the source.
# Columns and labels:
# Format in all cases: cell-based
# [1] = system: Bifidobacterium infantis subsp. Infantis ATCC 15702; test: MIC, agar dilution drug sensitivity test; conditions: ATCC15702, Table 1
# [2] = system: Bacteroides bifidum ATCC 1569; test: MIC, agar dilution drug sensitivity test; conditions: ATCC1569, Table 1
# [3] = system: Clostridium difficile ATCC 700057; test: MIC, agar dilution drug sensitivity test; conditions: Clostridioides difficile, ATCC700057
# [4] = system: Clostridium perfringens ATCC 13124; test: microbe, parasite or virus in culture; conditions: ATCC13124
# [5] = system: Eggerthella lenta ATCC 43055; test: MIC, agar dilution drug sensitivity test; conditions: ATCC43055, Table 1
# [6] = system: Fusobacterium necrophorum ATCC 25286; test: MIC, agar dilution drug sensitivity test; conditions: ATCC25286, Table 1
# [7] = system: Peptostreptococcus prevotii ATCC 9321; test: MIC, agar dilution drug sensitivity test; conditions: Anaerococcus prevotii, ATCC9321, Table 1
# [8] = system: Bordetella avium ATCC 6945; test: MIC, agar dilution drug sensitivity test
# [9] = system: Serratia marcescens ATCC 43862; test: MIC, agar dilution drug sensitivity test
# [10] = system: Proteus vulgaris ATCC 1331; test: MIC, agar dilution drug sensitivity test
# [11] = system: Enterobacter aerogenes ATCC 13048; test: MIC, agar dilution drug sensitivity test
# [12] = system: Haemophilus influenzae ATCC 49247; test: MIC, microscale broth dilution drug sensitivity test
# Experimental: (§1) In this embodiment, compound I-rifamycin-quinolizidone dual-action molecule is used in a drug sensitivity test on pathogenic bacteria associated with hepatic encephalopathy, the pathogenic bacteria including the above ammonia-producing bacteria. Except that Haemophilus is tested using the microscale broth dilution method, all the other bacteria are tested using the agar dilution method consistent with that in the Guideline of the Clinical and Laboratory Standards Institute (CLSI; 1-3). All the other drug susceptibility tests are performed under anaerobic conditions except that some selective isolates are tested under both aerobic and anaerobic conditions. Control compounds include metronidazole, rifampicin, clindamycin (under anaerobic conditions) and ciprofloxacin (under aerobic and anaerobic conditions). The tested clinical isolates may be reference strains obtained from American Type Culture Collection, ATCC, Manassas, Va. After being received, the strains are respectively inoculated on appropriate agar plates and placed under optimized conditions for growth. The growing strains are cloned in the broth containing cryoprotectant to prepare bacterial suspensions, and the bacterial suspensions are subpackaged and then stored in freezing at −80° C. Before test, the frozen bacteria are inoculated into appropriate agar dishes and cultured for growth. Anaerobic bacteria grow for 48 hours at 35° C. in a Bactron II oxygen-free cabinet (Shel Lab, Cornelius, Oreg.) before test. Haemophilus Test Medium (HTM, Teknova, Hollister, Calif.; Art. No.: 895120) is used to perform drug sensitivity test on Hemophilus using the microscale broth dilution method under aerobic and anaerobic conditions. Preparation and storage of all the above broths are performed in accordance with CLSI (1-3).
# [13] = system: Haemophilus parainfluenzae ATCC 49247; test: as above; conditions: ATCC49247
# Experimental: as §1
# [14] = system: Streptococcus parasanguinis MMX 5671; test: MIC, agar dilution drug sensitivity test
# [15] = system: Streptococcus salivarius ATCC 25975; test: MIC, agar dilution drug sensitivity test
# [16] = system: Streptococcus pneumoniae ATCC 49619; test: MIC, agar dilution drug sensitivity test
# [17] = system: Actinomyces naeslundii JMI 534283; test: MIC, agar dilution drug sensitivity test; conditions: JMI534283, Aerobic
# [18] = system: Alcaligenes faecalis JMI 940880; test: MIC, agar dilution drug sensitivity test; conditions: JMI940880, Aerobic
# [19] = system: Bacteroides vulgatus JMI 927011; test: MIC, agar dilution drug sensitivity test; conditions: Phocaeicola vulgatus, JMI927011
# [20] = system: Corynebacterium urealyticum JMI 2015_30; test: MIC, agar dilution drug sensitivity test; conditions: Aerobic
# [21] = system: Staphylococcus saprophyticus JMI 2016_703; test: MIC, agar dilution drug sensitivity test; conditions: Aerobic
# [22] = system: Escherichia coli ATCC 25922; test: MIC, agar dilution drug sensitivity test; conditions: ATCC25922, Table 1
# [23] = system: Helicobacter pylori ATCC 700824; test: MIC, agar dilution drug sensitivity test; conditions: ATCC700824, Table 1
# [24] = system: Lactobacillus salivarius JMI 941623; test: MIC, agar dilution drug sensitivity test; conditions: Ligilactobacillus salivarius, JMI941623, Table 1
# [25] = system: Klebsiella oxytoca JMI 933995; test: MIC, agar dilution drug sensitivity test; conditions: JMI933995, Table 1
# [26] = system: Morganella morganii MMX 6123; test: MIC, agar dilution drug sensitivity test; conditions: MMX6123, Table 1
# [27] = system: Proteus mirabilis JMI 933599; test: MIC, agar dilution drug sensitivity test; conditions: JMI933599, Table 1
# [28] = system: Proteus vulgaris MMX 6454; test: MIC, agar dilution drug sensitivity test; conditions: MMX6454, Table 1
# [29] = system: Salmonella spp ATCC 35987; test: MIC, agar dilution drug sensitivity test; conditions: ATCC35987, Table 1
# Experimental: In this embodiment, compound I-rifamycin-quinolizidone dual-action molecule is used in a drug sensitivity test on pathogenic bacteria associated with hepatic encephalopathy, the pathogenic bacteria including the above ammonia-producing bacteria. Except that Haemophilus is tested using the microscale broth dilution method, all the other bacteria are tested using the agar dilution method consistent with that in the Guideline of the Clinical and Laboratory Standards Institute (CLSI; 1-3). All the other drug susceptibility tests are performed under anaerobic conditions except that some selective isolates are tested under both aerobic and anaerobic conditions. Control compounds include metronidazole, rifampicin, clindamycin (under anaerobic conditions) and ciprofloxacin (under aerobic and anaerobic conditions).
# The tested clinical isolates may be reference strains obtained from American Type Culture Collection, ATCC, Manassas, Va. After being received, the strains are respectively inoculated on appropriate agar plates and placed under optimized conditions for growth. The growing strains are cloned in the broth containing cryoprotectant to prepare bacterial suspensions, and the bacterial suspensions are subpackaged and then stored in freezing at −80° C. Before test, the frozen bacteria are inoculated into appropriate agar dishes and cultured for growth. Anaerobic bacteria grow for 48 hours at 35° C. in a Bactron II oxygen-free cabinet (Shel Lab, Cornelius, Oreg.) before test. […]
# The Minimum Inhibitory Concentration (MIC) is determined using the agar dilution method.
# The MIC values of all microorganisms except Haemophilus are determined using the agar dilution method in the CLSI (1-2). […] After culturing, the MIC is determined in accordance with the CLSI guideline (1-2).
# [30] = system: Yersinia enterocolitica ATCC 23715; test: MIC, agar dilution drug sensitivity test; conditions: ATCC23715, Table 1
# [31] = ATCC49247, Haemophilus influenzae ATCC 49247, Aerobic
# [32] = ATCC49247, Haemophilus influenzae ATCC 49247, Anaerobic
smiles,measurement,setting,value
"Cc1ncc([N+](=O)[O-])n1CCO [Metronidazole, metronidazole]",MIC,[1],16 µg/mL
same,MIC,[2],8 µg/mL
same,MIC,[3],0.5 µg/mL
same,MIC,[4],2 µg/mL
same,MIC,[5],1 µg/mL
same,MIC,[6],0.12 µg/mL
same,MIC,[7],256 µg/mL
same,MIC,"[8]; Bordetella avium ATCC 6945, Anaerobic",>256 µg/mL
same,MIC,"[8]; Bordetella avium, ATCC6945",> 256 µg/mL
same,MIC,"[9]; Serratia marcescens ATCC 43862, Anaerobic",>256 µg/mL
same,MIC,"[9]; Serratia marcescens, ATCC43862",> 256 µg/mL
same,MIC,"[10]; Proteus vulgaris ATCC 1331, Anaerobic",>256 µg/mL
same,MIC,"[10]; Proteus vulgaris, ATCC1331",> 256 µg/mL
same,MIC,"[11]; Enterobacter aerogenes ATCC 13048, Anaerobic",>256 µg/mL
same,MIC,"[11]; Klebsiella aerogenes, ATCC13048",> 256 µg/mL
same,MIC,[12]; [31],64 µg/mL
same,MIC,[12]; [32],64 µg/mL
same,MIC,[13]; Haemophilus parainfluenzae,128 µg/mL
same,MIC,"[14]; Streptococcus parasanguinis MMX 5671, Anaerobic",>256 µg/mL
same,MIC,"[14]; Streptococcus parasanguinis, MMX5671",> 256 µg/mL
same,MIC,"[15]; Streptococcus salivarius ATCC 25975, Anaerobic",>256 µg/mL
same,MIC,"[15]; Streptococcus salivarius, ATCC25975",> 256 µg/mL
same,MIC,"[16]; ATCC49619, Streptococcus pneumoniae ATCC 49619, Aerobic",> 256 µg/mL
same,MIC,"[16]; ATCC49619, Streptococcus pneumoniae ATCC 49619, Anaerobic",128 µg/mL
"CO[C@H]1/C=C/O[C@@]2(C)Oc3c(C)c(O)c4c(O)c(c(/C=N/N5CCN(C)CC5)c(O)c4c3C2=O)NC(=O)/C(C)=C\C=C\[C@H](C)[C@H](O)[C@@H](C)[C@@H](O)[C@@H](C)[C@H](OC(C)=O)[C@@H]1C [Rifampicin, rifampicin]",MIC,[17],< 0.002 µg/mL
same,MIC,[18],16 µg/mL
same,MIC,[19],0.06 µg/mL
same,MIC,"[8]; Bordetella avium, ATCC6945, Bordetella avium ATCC 6945, Aerobic, read-out: MIC",16 µg/mL
same,MIC,"[8]; Bordetella avium, ATCC6945, Bordetella avium ATCC 6945, Anaerobic, read-out: MIC",64 µg/mL
same,MIC,[20],0.004 µg/mL
same,MIC,"[9]; Serratia marcescens, ATCC43862, Serratia marcescens ATCC 43862, Aerobic, read-out: MIC",64 µg/mL
same,MIC,"[9]; Serratia marcescens, ATCC43862, Serratia marcescens ATCC 43862, Anaerobic, read-out: MIC",64 µg/mL
same,MIC,"[10]; Proteus vulgaris, ATCC1331, Proteus vulgaris ATCC 1331, Aerobic, read-out: MIC",16 µg/mL
same,MIC,"[10]; Proteus vulgaris, ATCC1331, Proteus vulgaris ATCC 1331, Anaerobic, read-out: MIC",8 µg/mL
same,MIC,"[11]; Klebsiella aerogenes, ATCC13048, Enterobacter aerogenes ATCC 13048, Aerobic, read-out: MIC",64 µg/mL
same,MIC,"[11]; Klebsiella aerogenes, ATCC13048, Enterobacter aerogenes ATCC 13048, Anaerobic, read-out: MIC",64 µg/mL
same,MIC,[12]; [31],0.25 to 1 µg/mL
same,MIC,[12]; [32],0.25 µg/mL
same,MIC,"[13]; Haemophilus parainfluenzae ATCC 49247, Aerobic, read-out: MIC",0.5 µg/mL
same,MIC,[21],1 µg/mL
same,MIC,"[14]; Streptococcus parasanguinis, MMX5671, Streptococcus parasanguinis MMX 5671, Aerobic, read-out: MIC",0.03 µg/mL
same,MIC,"[14]; Streptococcus parasanguinis, MMX5671, Streptococcus parasanguinis MMX 5671, Anaerobic, read-out: MIC",16 µg/mL
same,MIC,"[15]; Streptococcus salivarius, ATCC25975, Streptococcus salivarius ATCC 25975, Aerobic, read-out: MIC",0.03 µg/mL
same,MIC,"[15]; Streptococcus salivarius, ATCC25975, Streptococcus salivarius ATCC 25975, Anaerobic, read-out: MIC",32 µg/mL
same,MIC,"[16]; ATCC49619, Streptococcus pneumoniae ATCC 49619, Aerobic, read-out: MIC",0.03 µg/mL
same,MIC,"[16]; ATCC49619, Streptococcus pneumoniae ATCC 49619, Anaerobic, read-out: MIC",0.12 µg/mL
"CO[C@H]1/C=C/O[C@@]2(C)Oc3c(C)c(O)c4c(O)c(c5c(nc6cc(C)ccn65)c4c3C2=O)NC(=O)/C(C)=C\C=C\[C@H](C)[C@H](O)[C@@H](C)[C@@H](O)[C@@H](C)[C@H](OC(C)=O)[C@@H]1C [Rifaximin, rifaximin]",MIC,[1],0.25 µg/mL
same,MIC,[2],0.5 µg/mL
same,MIC,[3],0.004 µg/mL
same,MIC,[4],0.12 µg/mL
same,MIC,[5],0.12 µg/mL
same,MIC,[6],16 µg/mL
same,MIC,[22],8 µg/mL
same,MIC,[23],2 µg/mL
same,MIC,[24],1 µg/mL
same,MIC,[7],0.03 µg/mL
same,MIC,[25],32 µg/mL
same,MIC,[26],16 µg/mL
same,MIC,[27],8 µg/mL
same,MIC,[28],4 µg/mL
same,MIC,[29],16 µg/mL
same,MIC,[30],8 µg/mL
